One data set concerns human erythrocytes. As to the kind of experiment: Hemolytic assay. To be noted: SPOT-synthesized crude peptides; human red blood cells in NaCl 0.85%, 1 h, 37 °C; hemoglobin release at 546 nm; highest concentration 200 μg mL−1; 100% of hemolysis was not observed.
The subject of data set [1] is P. aeruginosa H1001 (fliC::luxCDABE). The format is cell-based, Pseudomonas aeruginosa. To be noted: SPOT-synthesized unpurified crude peptide (~70% purity); bioluminescent engineered P. aeruginosa; BM2 medium; 4 h, 37 °C; reduction of luminescence; 200 to 3 μg mL−1 tested. How it is done:
A peptide array composed of 20 peptides (15 guavanins, 4 Pg-AMP1 fragments, and magainin 2) was designed and synthesized by Kinexus Bioinformatics Corporation (Vancouver, BC). Peptides were produced in a standard mass of 80 μg by using cellulose support in SPOT technology. The crude synthetic peptides were obtained from cellulose membrane discs that had already been treated with ammonia gas to release the peptides from the membrane. Peptides were then dissolved overnight in distilled water and subsequently evaluated for their biological activities, as described below.
The antimicrobial activity of the synthesized peptides was evaluated against an engineered luminescent P. aeruginosa H1001 (fliC::luxCDABE) strain in 96-well microplates. Aqueous solutions of peptides released from the cellulose spots were diluted twofold in BM2 medium [62 mM potassium phosphate buffer pH 7; 2 mM MgSO4; 10 μM FeSO4; 0.4% (wt/vol) glucose] down the eight wells of a 96-well plate, achieving a final volume of 25 μL in each well. Subsequently, 50 μL of overnight culture of P. aeruginosa H1001 (fliC::luxCDABE) were subcultured in 5 mL of fresh LB media and grown until they reached an OD600 of 0.4. This growing bacteria culture was then diluted 4:100 (v/v) into fresh BM2 media and 25 μL of this diluted bacterial culture was transferred to the microplate wells containing 25 μL of peptide solution. The final peptide concentrations tested ranged from 200 to 3 μg mL^−1. The plates were incubated for 4 h at 37 °C with constant shaking at 50 rpm. Luminescence was measured on a Tecan […]luor Plus Microplate Reader (Tecan US, Morrisville, NC). The antimicrobial activity was evaluated by the ability of the peptides to reduce the luminescence of P. aeruginosa-lux strain compared to untreated cells. The AMP magainin 2 and the carbapenem meropenem were used as positive controls and distilled water was used as a negative control.

Converted amounts (≈) assume the structure as drawn. Peptide text beside a SMILES is read from it.

As a reminder, the MIC is the least concentration at which growth counts as inhibited.

Description for human erythrocytes: Fresh human venous blood was collected from volunteers in Vacutainer collection tubes containing sodium heparin as an anticoagulant (BD Biosciences, Franklin Lakes, NJ). The blood was centrifuged applying 151 × g force (1500 rpm) and the serum was removed and the blood cells were replaced and washed three times with the same volume of sterile NaCl 0.85% solution. Concentrated red blood cells were diluted tenfold in NaCl 0.85% solution and then exposed at twofold dilutions of peptides for 1 h at 37 °C, at identical concentrations used for antimicrobial assays, in the ratio of 1:1 (v/v), achieving a final volume of 100 μL. The assay was carried out in 96-well polypropylene microtiter plates. The positive control wells contained 1% of Triton X-100, representing 100% cell lysis, and negative control wells contained sterile saline. Hemoglobin release was monitored chromogenically at 546 nm using a microplate reader.

As for `CSCC[C@H](NC(=O)[C@H](CCCNC(=N)N)NC(=O)[C@H](CO)NC(=O)[C@@H](N)CO)C(=O)N[C@@H](CCC(=O)O)C(=O)N[C@@H](CS)C(=O)N[C@@H](Cc1ccc(O)cc1)C(=O)N[C@@H](CCC(=O)O)C(=O)N[C@@H](CCC(N)=O)C(=O)N[C@@H](C)C(=O)N[C@@H](CCC(=O)O)C(=O)N[C@@H](CCCNC(=N)N)C(=O)N[C@@H](Cc1ccc(O)cc1)C(=O)NCC(=O)N[C@@H](Cc1ccc(O)cc1)C(=O)NCC(=O)NCC(=O)N[C@@H](Cc1ccc(O)cc1)C(=O)NCC(=O)NCC(N)=O` [Fragment 1 (α-helix)] (H-SSRMECYEQAERYGYGGYGG-NH2), the Hemolysis with human erythrocytes was more than 200 µg/mL. This molecule also yielded an MIC in data set [1] of more than 200 µg/mL.
`N=C(N)NCCC[C@H](NC(=O)CNC(=O)[C@H](CO)NC(=O)CNC(=O)[C@H](Cc1ccc(O)cc1)NC(=O)CNC(=O)CNC(=O)CNC(=O)[C@H](Cc1ccc(O)cc1)NC(=O)[C@H](CCCNC(=N)N)NC(=O)CNC(=O)CNC(=O)CNC(=O)[C@H](Cc1ccc(O)cc1)NC(=O)CNC(=O)CNC(=O)[C@H](Cc1ccc(O)cc1)NC(=O)CNC(=O)[C@H](Cc1ccc(O)cc1)NC(=O)[C@@H](N)CCCNC(=N)N)C(N)=O` [Fragment 2 (net charge)] (H-RYGYGGYGGGRYGGGYGSGR-NH2) returned a Hemolysis in the data set on human erythrocytes of 100 µg/mL. The same molecule displayed an MIC in data set [1] of 200 µg/mL (≈ 99.2 µM).
As to `N=C(N)NCCC[C@H](NC(=O)CNC(=O)[C@H](CO)NC(=O)CNC(=O)[C@H](Cc1ccc(O)cc1)NC(=O)CNC(=O)CNC(=O)CNC(=O)[C@H](Cc1ccc(O)cc1)NC(=O)[C@H](CCCNC(=N)N)NC(=O)CNC(=O)CNC(=O)CNC(=O)[C@H](Cc1ccc(O)cc1)NC(=O)CNC(=O)CNC(=O)[C@H](Cc1ccc(O)cc1)NC(=O)CNC(=O)[C@@H](N)Cc1ccc(O)cc1)C(=O)NCC(N)=O` [Fragment 3 (hydrophobicity)] (H-YGYGGYGGGRYGGGYGSGRG-NH2), the Hemolysis in the data set on human erythrocytes is more than 200 µg/mL. This molecule showed an MIC in data set [1] of more than 200 µg/mL.
On to `CC(C)[C@H](NC(=O)CNC(=O)[C@H](CCC(N)=O)NC(=O)CNC(=O)[C@@H](NC(=O)[C@@H]1CCCN1C(=O)[C@H](CCC(N)=O)NC(=O)CN)C(C)C)C(=O)N[C@@H](CCC(=O)O)C(=O)N[C@@H](CCCNC(=N)N)C(=O)N[C@@H](CO)C(=O)N[C@@H](Cc1c[nH]cn1)C(=O)N[C@@H](CC(=O)O)C(=O)N[C@@H](CC(=O)O)C(=O)N[C@@H](CC(N)=O)C(=O)N[C@@H](CCCNC(=N)N)C(=O)N[C@@H](CC(N)=O)C(=O)N[C@@H](CCC(N)=O)C(=O)N1CCC[C@H]1C(=O)N[C@@H](CCCNC(=N)N)C(N)=O` [Fragment 4 (hydrophobic moment)] (H-GQPVGQGVERSHDDNRNQPR-NH2), for which, in the data set with human erythrocytes, the Hemolysis was more than 200 µg/mL. Also, in data set [1], the minimum inhibitory concentration (MIC) was more than 200 µg/mL.
Take `CC[C@H](C)[C@H](NC(=O)[C@H](CCCNC(=N)N)NC(=O)[C@H](CCC(=O)O)NC(=O)[C@H](Cc1ccc(O)cc1)NC(=O)[C@H](CCC(N)=O)NC(=O)[C@H](CCCCN)NC(=O)[C@H](CCSC)NC(=O)CNC(=O)[C@H](CCCNC(=N)N)NC(=O)[C@@H](N)CCCNC(=N)N)C(=O)N[C@@H](CO)C(=O)N[C@@H](CCCNC(=N)N)C(=O)N[C@@H](CC(=O)O)C(=O)N[C@@H](C)C(=O)N[C@@H](CC(N)=O)C(=O)N[C@@H](CCCNC(=N)N)C(=O)N[C@@H](CO)C(=O)N[C@@H](Cc1ccc(O)cc1)C(=O)N[C@@H](CCCNC(=N)N)C(=O)N[C@@H](CCCNC(=N)N)C(N)=O` [Guavanin 1] (H-RRGMKQYERISRDANRSYRR-NH2): the Hemolysis in the data set with human erythrocytes is more than 200 µg/mL. The molecule also displayed a minimal inhibitory concentration (MIC) in data set [1] of 200 µg/mL (≈ 77 µM).
For `CC[C@H](C)[C@H](NC(=O)[C@H](C)NC(=O)[C@H](CCC(=O)O)NC(=O)[C@H](CCC(=O)O)NC(=O)[C@H](Cc1ccc(O)cc1)NC(=O)[C@H](CCC(N)=O)NC(=O)[C@H](CCCNC(=N)N)NC(=O)[C@H](CCSC)NC(=O)[C@H](Cc1ccc(O)cc1)NC(=O)[C@H](CCCCN)NC(=O)[C@@H](N)CCCNC(=N)N)C(=O)N[C@@H](CCCNC(=N)N)C(=O)N[C@@H](CC(=O)O)C(=O)NCC(=O)N[C@@H](CC(N)=O)C(=O)N[C@@H](CCCNC(=N)N)C(=O)N[C@@H](CO)C(=O)N[C@H](C(=O)N[C@@H](CCCNC(=N)N)C(=O)N[C@@H](CCCNC(=N)N)C(N)=O)[C@@H](C)CC` [Guavanin 3] (H-RKYMRQYEEAIRDGNRSIRR-NH2), in that order: more than 200 µg/mL and more than 200 µg/mL.
In the data set on human erythrocytes, `CSCC[C@H](NC(=O)[C@H](Cc1ccc(O)cc1)NC(=O)[C@H](CCC(N)=O)NC(=O)[C@@H](N)CCCNC(=N)N)C(=O)N[C@@H](CCCNC(=N)N)C(=O)N[C@@H](Cc1ccc(O)cc1)C(=O)N[C@@H](CC(C)C)C(=O)N[C@@H](CCC(=O)O)C(=O)N[C@@H](CCC(N)=O)C(=O)N[C@@H](C)C(=O)N[C@@H](CCC(=O)O)C(=O)N[C@@H](CCCNC(=N)N)C(=O)N[C@@H](Cc1ccc(O)cc1)C(=O)N[C@H](C(=O)N[C@@H](CC(N)=O)C(=O)N[C@@H](CCCNC(=N)N)C(=O)N[C@@H](CC(N)=O)C(=O)N[C@@H](CC(C)C)C(=O)N[C@@H](CCCNC(=N)N)C(=O)N[C@@H](CCCNC(=N)N)C(N)=O)C(C)C` [Guavanin 4] (H-RQYMRYLEQAERYVNRNLRR-NH2) registered a Hemolysis of more than 200 µg/mL. This molecule also gave an MIC in data set [1] of 100 µg/mL (≈ 36.8 µM).
For the molecule `CC[C@H](C)[C@H](NC(=O)[C@H](CCCNC(=N)N)NC(=O)[C@H](CC(N)=O)NC(=O)[C@H](Cc1ccccc1)NC(=O)[C@H](Cc1ccc(O)cc1)NC(=O)[C@H](CCCNC(=N)N)NC(=O)[C@H](Cc1ccccc1)NC(=O)[C@H](C)NC(=O)[C@H](CCC(=O)O)NC(=O)[C@H](CCC(=O)O)NC(=O)[C@H](Cc1ccc(O)cc1)NC(=O)[C@H](CCSC)NC(=O)[C@H](CCC(=O)O)NC(=O)[C@H](CCSC)NC(=O)[C@H](CC(C)C)NC(=O)[C@H](CCCCN)NC(=O)[C@@H](N)CCCNC(=N)N)C(=O)N[C@@H](CO)C(=O)N[C@@H](CCCNC(=N)N)C(=O)N[C@@H](CCCNC(=N)N)C(N)=O` [Guavanin 5] (H-RKLMEMYEEAFRYFNRISRR-NH2), the Hemolysis with human erythrocytes was more than 200 µg/mL. In addition, the minimum inhibitory concentration (MIC) in data set [1] is 100 µg/mL (≈ 37.1 µM).
For `CC[C@H](C)[C@H](NC(=O)CNC(=O)[C@H](CCCNC(=N)N)NC(=O)[C@H](CC(N)=O)NC(=O)[C@H](Cc1ccccc1)NC(=O)[C@H](CO)NC(=O)[C@H](CCCNC(=N)N)NC(=O)[C@H](CO)NC(=O)[C@H](C)NC(=O)[C@H](CCC(N)=O)NC(=O)[C@H](CCCCN)NC(=O)[C@H](Cc1ccc(O)cc1)NC(=O)[C@H](CC(C)C)NC(=O)[C@H](CCC(=O)O)NC(=O)[C@H](CCSC)NC(=O)[C@@H](NC(=O)[C@H](CO)NC(=O)[C@@H](N)CCCNC(=N)N)[C@@H](C)CC)C(=O)N[C@@H](CCCNC(=N)N)C(=O)N[C@@H](CCCNC(=N)N)C(N)=O` [Guavanin 6] (H-RSIMELYKQASRSFNRGIRR-NH2), in that order: more than 200 µg/mL and 100 µg/mL (≈ 40.5 µM).
In data set [1], `CC[C@H](C)[C@H](NC(=O)CN)C(=O)NCC(=O)N[C@@H](CCCCN)C(=O)N[C@@H](Cc1ccccc1)C(=O)N[C@@H](CC(C)C)C(=O)N[C@@H](Cc1c[nH]cn1)C(=O)N[C@@H](CO)C(=O)N[C@@H](C)C(=O)N[C@@H](CCCCN)C(=O)N[C@@H](CCCCN)C(=O)N[C@@H](Cc1ccccc1)C(=O)NCC(=O)N[C@@H](CCCCN)C(=O)N[C@@H](C)C(=O)N[C@@H](Cc1ccccc1)C(=O)N[C@H](C(=O)NCC(=O)N[C@@H](CCC(=O)O)C(=O)N[C@H](C(=O)N[C@@H](CCSC)C(=O)N[C@@H](CC(N)=O)C(=O)N[C@@H](CO)C(N)=O)[C@@H](C)CC)C(C)C` [Magainin 2, reference compound] (H-GIGKFLHSAKKFGKAFVGEIMNS-NH2) yielded an MIC of 100 µg/mL (≈ 40.6 µM).

The record behind these values is PMC5902452, “In silico optimization of a guava antimicrobial peptide enables combinatorial exploration for peptide design” (Nature Communications, 2018).
